Experimental findings from patent US6420406B1, “Triazolyl disulphides” (Bayer Aktiengesellschaft, priority 1996, dated 2002) are described below.

Common to all, as to assay type: in vivo
For test [1], the system named is Erysiphe graminis f.sp. hordei. Nature of the test: Erysiphe test (barley)/curative. The note with it: curative, sprayed 48 hours after inoculation, application rate 250 g/ha, evaluation 7 days after inoculation, 100% = no infection. The method, then:
Erysiphe Test (barley)/curative Solvent: 10 parts by weight of N-methyl-pyrrolidone Emulsifier: 0.6 parts by weight of alkylaryl polyglycol ether To product a suitable preparation of active compound 1 part by weight of active compound is mixed with the stated amounts of solvent and emulsifier, and the concentrate is diluted with water to the desired concentration. To test for curative activity, young plants are dusted with spores of Erysiphe graminis f.sp. hordei. 48 hours after the incubation, the plants are sprayed with the preparation of active compound at the stated application rate. The plants are placed in a greenhouse at a temperature of approximately 20° C. and a relative atmospheric humidity of approximately 80%, in order to promote the development of mildew pustules.

Test [2] relates to Erysiphe graminis f.sp. hordei. Nature of the test: Erysiphe test (barley)/protective. The note with it: protective, application rate 250 g/ha, evaluation 7 days after inoculation, 100% = no infection. The procedure:
(§1) Erysiphe test (barley)/protective Solvent: 10 parts by weight of N-methyl-pyrrolidone Emulsifier: 0.6 parts by weight of alkylaryl polyglycol ether To prepare a suitable preparation of active compound, 1 part by weight of active compound if mixed with the stated amounts of solvent and emulsifier, and the concentrate is diluted with water to the desired concentration. To test for protective activity, young plants are sprayed with the preparation of active compound at the stated application rate. After the spray coating has dried on, the plants are dusted with spores of Erysiphe graminis f.sp. hordei. The plants are placed in a greenhouse at a temperature of approximately 20° C. and a relative atmospheric humidity of approximately 80%, in order to promote the development of mildew pustules.

The test system of test [3] is Sphaerotheca fuliginea. Nature of the test: Sphaerotheca test (cucumber)/protective. The note with it: protective, application rate 50 g/ha, evaluation 10 days after inoculation, 100% = no infection. The method, then:
Sphaerotheca test (cucumber/protective Solvent: 47 parts by weight of acetone Emulsifier: 3 parts by weight of alkylaryl polyglycol ether To produce a suitable preparation of active compound, 1 part by weight of active compound is mixed with the stated amounts of solvent and emulsifier, and the concentrate is diluted with water to the desired concentration. To test for protective activity, young plants are sprayed with the preparation of active compound at the stated application rate. After the spray coating has dried on, the plants are inoculated with an aqueous spore suspension of Sphaerotheca fuliginea. The plants are subsequently placed in a greenhouse at 23 to 24° C. and at a relative atmospheric humidity of approximately 75%.

Test [4] concerns Fusarium graminearum. The note with it: barley, protective, application rate 250 g/ha, evaluation 4 days after inoculation; 100% = no infection.
For test [5], the system named is Puccinia recondita. Briefly: Puccinia test (wheat)/curative. The note with it: curative, sprayed 48 hours after inoculation, application rate 250 g/ha, evaluation 10 days after inoculation, 100% = no infection. The procedure: Puccinia test (wheat/curative Solvent: 10 parts by weight of N-methyl-pyrrolidone Emulsifier: 0.6 part by weight of alkylaryl polyglycol ether To product a suitable preparation of active compound, 1 part by weight of active compound is mixed with the stated amounts of solvent and emulsifier, and the concentrate is diluted with water to the desired concentration. […] 48 hours after the inoculation the plants are sprayed with the preparation of active compound at the stated application rate. The plants are placed in a greenhouse at a temperature of approximately 20° C. and a relative atmospheric humidity of approximately 80%, in order to promote the development of rust pustules.

Test [6] has as its system Venturia inaequalis. Briefly: Venturia test (apple)/protective. The note with it: protective, application rate 50 g/ha, evaluation 12 days after inoculation, 100% = no infection. The method, then:
(§2) Venturia test (apple)/protective Solvent: 47 parts by weight of acetone Emulsifier: 3 parts by weight of alkylaryl polyglycol ether To produce a suitable preparation of active compound, 1 part by weight of active compound is mixed with the stated amounts of solvent and emulsifier, and the concentrate is diluted with water to the desired concentration. To test for protective activity, young plants are sprayed with the preparation of active compound at the stated application rate. After the spray coating has dried on, the plants are inoculated with an aqueous conidia suspension of the causative organism of apple scab Venturia inaequalis and then remain placed at 20° C. and a relative atmospheric humidity of approximately 70% for 1 day. The plants are then placed in a greenhouse at 20° C. and at a relative atmospheric humidity of approximately 70%.

Test [7] deals with Erysiphe graminis f.sp. tritci. Briefly: Erysiphe test (wheat)/protective. The note with it: protective, application rate 250 g/ha, evaluation 7 days after inoculation, 100% = no infection. The procedure: as §1, with “test (wheat)/protective” for “test (barley)/protective”, “compound is” for “compound if”, “graminis […].” for “graminis f.sp. hordei.”
The test system of test [8] is Podosphaera leucotricha. Nature of the test: Podosphaera test (apple)/protective. The note with it: protective, application rate 50 g/ha, evaluation 10 days after inoculation, 100% = no infection. The procedure:
as §2, with “Podosphaera” for “Venturia”, “product” for “produce”, “spore” for “conidia”, “mildew Podosphaera leucotricha.” for “scab Venturia inaequalis and then remain placed at 20° C. and a relative atmospheric humidity of approximately 70% for 1 day.”, “23°” for “20°”, “75%.” for “70%.”

Test [9] has as its system W strain of Pseudocercosporella herpotrichoides. Nature of the test: Pseudocercosporella herpotrichoides test; W strain (wheat)/protective. The note with it: protective, application rate 250 g/ha, evaluation 21 days after inoculation, 100% = no infection. The method, then: Pseudocercosporella herpotrichoides test; W strain (wheat/protective Solvent: 10 parts by weight of N-methyl-pyrrolidone Emulsifier: 0.6 part by weight of alkylaryl polyglycol ether To product a suitable preparation of active compound, 1 part by weight of active compound is mixed with the stated amounts of solvent and emulsifier, and the concentrate is diluted with water to the desired concentration. To test for protective activity, young plants are sprayed with the preparation of active compound at the stated application rate. After the spray coating has dried on, the plants are inoculated at the base of the stem with spores of the W strain of Pseudocercosporella herpotrichoides. The plants are placed in a greenhouse at a temperature of approximately 10° C. and a relative atmospheric humidity of approximately 80%.

On to `OC(Cc1ccccc1Cl)(Cn1ncnc1SSc1ncnn1CC(O)(Cc1ccccc1Cl)C1(Cl)CC1)C1(Cl)CC1` (centres unmarked) [Example I-1, di-{1-[2-(1-chlorocyclopropyl)-3-(2-chloro-phenyl)-2-hydroxy-propyl-1]-1,2,4-triazol-5-yl} disulphide], for which the Efficacy in % in [1], in test [2], in [3], in test [4], in test [5] and in [6] was 100% in each case. The Efficacy in % in [7], in [8] and in [9] was 100% in each case.
Turning to `Fc1ccc(C2(Cn3ncnc3SSc3ncnn3CC3(c4ccc(F)cc4)OC3c3ccccc3Cl)OC2c2ccccc2Cl)cc1` (centres unmarked) [Example I-2], the Efficacy in % in test [3] came to 92%; in test [8], 96%.
